Data on 99 sequences can be found in the OligoGym collection.

Where “and” joins values, the source holds several entries; their conditions need not be identical. Equal entries are not always repeated. After the bases stand the sugars from the 5' end (letter, count) and the backbone: PS all phosphorothioate, else s phosphorothioate and o phosphodiester by linkage. Methylation of C is not given here. k = constrained ethyl (cEt); d = 2'-deoxy (DNA)

This data set concerns the target MALAT1. The following applies: ASO, A431, 0.005 µM.
As to GTTGAGGCAAGTCCTC (sugars k3 d10 k3, PS), the target mRNA inhibition was 3%. As to ATTACGCAACTGAGCC (sugars k3 d10 k3, PS), the target mRNA inhibition worked out at 16%.

As for ACAGAAGTCTCGGGCT (sugars k3 d10 k3, PS), the target mRNA inhibition was found to be 19%. As to ACTTGAATGCAAACTA (sugars k3 d10 k3, PS), the target mRNA inhibition was found to be 11%. On to CTCACGGATTTTTACC (sugars k3 d10 k3, PS), for which the target mRNA inhibition was found to be 7%.

ACTATCACAATTCTTA (sugars k3 d10 k3, PS): the target mRNA inhibition is 13%. As to GGAGTTACTTGCCAAC (sugars k3 d10 k3, PS), the target mRNA inhibition turned out to be 24%. The value for TTTTTACCAACCACTC (sugars k3 d10 k3, PS) was 26%; that for ATTGGTTACCAATAAT (sugars k3 d10 k3, PS) was 4%; that for GCCCCCTCAGCAGAAG (sugars k3 d10 k3, PS) was 25%.

With GGTAATTACTCTTGAT (sugars k3 d10 k3, PS), the target mRNA inhibition was determined as 50%.

Consider TTCTAATAGCAGCGGG (sugars k3 d10 k3, PS), for which the target mRNA inhibition is 59% and 40%.

Regarding CAGCGGTACACTCCTT (sugars k3 d10 k3, PS), the target mRNA inhibition was 36%. Turning to TAATAGAGCTACTTAG (sugars k3 d10 k3, PS), the target mRNA inhibition was -16%. With ACGCTAAGCAATATCT (sugars k3 d10 k3, PS), the target mRNA inhibition turned out to be 37%. With CTAGATTCACTGAATC (sugars k3 d10 k3, PS), the target mRNA inhibition was 7%. AATGTACTCAGCTTCA (sugars k3 d10 k3, PS): the target mRNA inhibition is 48%. Regarding TACTTGCCAACTTGGA (sugars k3 d10 k3, PS), the target mRNA inhibition turned out to be 51%. The value for TCCCTGTTAAGACCAT (sugars k3 d10 k3, PS) was 27%; that for TCCCGTACTTCTGTCT (sugars k3 d10 k3, PS) was 41%.

Take CAACAAGTAAGCCCCA (sugars k3 d10 k3, PS): the target mRNA inhibition stood at 0%. As to GTAGATTCCGTAACTT (sugars k3 d10 k3, PS), the target mRNA inhibition is 73% and 54% and 50%. GTTACCATAAGTAAGT (sugars k3 d10 k3, PS): the target mRNA inhibition is 2%.

On to TTCGGTTTAATCTCTT (sugars k3 d10 k3, PS), for which the target mRNA inhibition worked out at 94%. The value for AATTTTTCTACCGTTT (sugars k3 d10 k3, PS) was 11%; that for TGCCATCTACTATTTC (sugars k3 d10 k3, PS) was 19%. With GGCAAATTAATGGCCT (sugars k3 d10 k3, PS), the target mRNA inhibition came to 25%.

CCTTTCATAGAGCCTT (sugars k3 d10 k3, PS): the target mRNA inhibition was 69% and 90%. On to GATGTGATTTTTAACC (sugars k3 d10 k3, PS), for which the target mRNA inhibition was 52% and 56%. Consider TTGTCCTACTTTAAGC (sugars k3 d10 k3, PS), for which the target mRNA inhibition turned out to be 30%. As to TAACTGATCTGACTTT (sugars k3 d10 k3, PS), the target mRNA inhibition is 26%. The value for GACGCAATTCTCCCTG (sugars k3 d10 k3, PS) was 27%; that for TCATAATCTCCCACCT (sugars k3 d10 k3, PS) was 10%. In the case of ATGAGTATAAGCCTGA (sugars k3 d10 k3, PS), the target mRNA inhibition worked out at 55%. The value for TGAACCGGAGCAGGAA (sugars k3 d10 k3, PS) was 5%; that for CTTATTTAGAGGGCCT (sugars k3 d10 k3, PS) was 36%.

Consider AGATAGCAGCACAACT (sugars k3 d10 k3, PS), for which the target mRNA inhibition was -5%. Regarding ATTACACCAGTCCTTT (sugars k3 d10 k3, PS), the target mRNA inhibition came to 40%. On to TATCTGTTAACAGCTG (sugars k3 d10 k3, PS), for which the target mRNA inhibition was 41%.

Regarding GTACATTTTGCCCTTA (sugars k3 d10 k3, PS), the target mRNA inhibition was 64% and 45%.

For the sequence TTATACATCAAGGATG (sugars k3 d10 k3, PS), the target mRNA inhibition was determined as 4%. CTACAAGTTACATGTT (sugars k3 d10 k3, PS): the target mRNA inhibition is -9%. With ATCACCTTCCGCCGCC (sugars k3 d10 k3, PS), the target mRNA inhibition came out at 15%. The value for GCAGTAGGGCTTCTCA (sugars k3 d10 k3, PS) was -8%; that for GATCATAATCTCCCAC (sugars k3 d10 k3, PS) was 41%. As for GAGTTCAAGTGGCCTT (sugars k3 d10 k3, PS), the target mRNA inhibition stood at 17%. Regarding AGAGAAGAATCCCCCC (sugars k3 d10 k3, PS), the target mRNA inhibition came to 28%. The value for TTACCCCAACTAAACA (sugars k3 d10 k3, PS) was -4%. Turning to ATATCTTAGTAACCTA (sugars k3 d10 k3, PS), the target mRNA inhibition was 15%. The result for CAATTTACATCACAAC (sugars k3 d10 k3, PS) reads 45%. Consider TGAAAGAACTAGTGGT (sugars k3 d10 k3, PS), for which the target mRNA inhibition was 23%. The result for GCTACTTAGCTGTGGT (sugars k3 d10 k3, PS) reads 28%; that for GGTCTAGGATCCTCTA (sugars k3 d10 k3, PS), 23%; that for CCCGGAACTTTTAAAA (sugars k3 d10 k3, PS), -7%. The value for TGGAAACCAGGAGTGC (sugars k3 d10 k3, PS) was 14%; that for AACCACTCGCTTTCCC (sugars k3 d10 k3, PS) was 41%.

Take CGTTACCTTGAAACCG (sugars k3 d10 k3, PS): the target mRNA inhibition turned out to be 36%.

In the case of CAACATATTGCCGACC (sugars k3 d10 k3, PS), the target mRNA inhibition was -26%. As for ACTGATCTGACTTTGT (sugars k3 d10 k3, PS), the target mRNA inhibition is 32%. The result for TCAATTAATGCTAGTC (sugars k3 d10 k3, PS) reads 35%; that for CTGCTCGCCTCCTCCG (sugars k3 d10 k3, PS), 16%; that for GCCGTTGGCTGCCAGT (sugars k3 d10 k3, PS), -8%. As for GCTCGCTTGCTCCTCA (sugars k3 d10 k3, PS), the target mRNA inhibition came out at 39%. In the case of CTGATTCTAACAGCAC (sugars k3 d10 k3, PS), the target mRNA inhibition was 55% and 49% and 50%. The result for GCTAGGGAAAAGTGGT (sugars k3 d10 k3, PS) reads 5%. On to TCTGATTATCCTGATA (sugars k3 d10 k3, PS), for which the target mRNA inhibition was 11%. The value for TCTCTTGAGGGACAGT (sugars k3 d10 k3, PS) was -7%; that for TCGGTTTAATCTCTTT (sugars k3 d10 k3, PS) was 63% and 73%. AACCAACTTCCCCTTC (sugars k3 d10 k3, PS): the target mRNA inhibition was found to be 16%. For the sequence TCAAGTGGCCTTTTAA (sugars k3 d10 k3, PS), the target mRNA inhibition was -38%.

Consider CTCTAATCACTGTCAA (sugars k3 d10 k3, PS), for which the target mRNA inhibition amounted to 11%. Take GAATCTTACTTGATAA (sugars k3 d10 k3, PS): the target mRNA inhibition stood at 13%. Take TGTTAACAGCTGCCTG (sugars k3 d10 k3, PS): the target mRNA inhibition was 39%.

CCACTCTTGGAAAACG (sugars k3 d10 k3, PS): the target mRNA inhibition amounted to 23%.

Consider CCTTCGGATGCTTCAC (sugars k3 d10 k3, PS), for which the target mRNA inhibition was 58% and 78%. The result for TTAATCATACTCCAGT (sugars k3 d10 k3, PS) reads 19%; that for TATAAGGACAGCTAAG (sugars k3 d10 k3, PS), 21%. With CCTTTATCACTCAGCT (sugars k3 d10 k3, PS), the target mRNA inhibition was 54%. As to GCCTACCACTCTAAGA (sugars k3 d10 k3, PS), the target mRNA inhibition is 29%.

Take TACAAAAGCTACCATC (sugars k3 d10 k3, PS): the target mRNA inhibition turned out to be 12%.

As to ACTACCAGCCATTTCT (sugars k3 d10 k3, PS), the target mRNA inhibition amounted to 49%. In the case of AGTCCAATGCAAAAAC (sugars k3 d10 k3, PS), the target mRNA inhibition was determined as 23%. The result for GACCAAACTGCAGAGT (sugars k3 d10 k3, PS) reads 3%; that for TGACACTTTCCTTGCC (sugars k3 d10 k3, PS), 66% and 46%.

As to GCACGGGCTGTCTGCT (sugars k3 d10 k3, PS), the target mRNA inhibition was -12%. As for GGAGGCAAAAAGTAGT (sugars k3 d10 k3, PS), the target mRNA inhibition worked out at 9%. The value for CCCCAGTTCAATACTT (sugars k3 d10 k3, PS) was 25%; that for CTGTGTTATGCCTGGT (sugars k3 d10 k3, PS) was -3%. Turning to TCTCAACCTCCGTCAT (sugars k3 d10 k3, PS), the target mRNA inhibition is 27%. As to GCTTTAAATGACGCAA (sugars k3 d10 k3, PS), the target mRNA inhibition was -22%. The value for GCCATCTACTATTTCT (sugars k3 d10 k3, PS) was 38%.

Turning to AATACCCTTCTGTTAA (sugars k3 d10 k3, PS), the target mRNA inhibition was 16%. The value for CCCCAGTTGCCGCCAG (sugars k3 d10 k3, PS) was -18%; that for TTCAATCACAAATACG (sugars k3 d10 k3, PS) was 19%; that for ACAACAAGTAAGCCCC (sugars k3 d10 k3, PS) was -7%. Turning to TCTAACCCAGTTTGTC (sugars k3 d10 k3, PS), the target mRNA inhibition was determined as 31%. The value for GAGCATTGGAGATCAG (sugars k3 d10 k3, PS) was 29%. Consider CACTGCCAACTAATTG (sugars k3 d10 k3, PS), for which the target mRNA inhibition amounted to 39%. In the case of CTGTGGTTTTAATACC (sugars k3 d10 k3, PS), the target mRNA inhibition came to 51%.
